Test results published in the supplement of paper PMC10627819.

What was measured:
[1] = system: B. subtilis 168; assay: Bliss interaction score (quartile over a dose matrix) (fitness difference); higher = more antagonism (negative = synergy)
Outline: (§1)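 Fitness is OD595 at stationary-phase entry relative to the plate's robust no-drug mean, capped at 1. Single-drug fitness was inferred from combinations. The Bliss score is observed minus product-expected fitness, summarised by quartiles over technical, biological and donor/recipient replicates.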

[2] = system: S. pneumoniae D39V; assay: as above
Outline: as §1

[3] = system: S. aureus Newman; assay: as above
Outline: as §1

[4] = system: S. aureus DSM 20231; assay: as above
Outline: as §1

[5] = system: S. pneumoniae D39V; assay: fitness (endpoint OD595 vs no drug) (fraction); higher = more growth
Outline: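 Fitness compares growth at the stationary-phase transition with the robust mean of no-drug control wells, as a ratio of optical densities. The ratio is capped at 1. Wells of 384-well plates held 30 µl, or 55 µl for S. pneumoniae, inoculated at OD595 0.01. Readings at OD595 every 30 min for 14 h at 37 °C were corrected against the first reading.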
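Wherever Bliss interaction score (quartile over a dose matrix) is given: first quartile when negative (synergy) and third quartile when positive (antagonism).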

C[C@@H](O)[C@H]1C(=O)N2C(C(=O)O)=C(SCCNC=N)C[C@H]12 [Imipenem] + C/C(=C\C(=O)OCCCCCCCCC(=O)O)C[C@@H]1OC[C@H](C[C@@H]2O[C@H]2[C@@H](C)[C@H](C)O)[C@@H](O)[C@H]1O [Pseudomonic acid]
Settings | Bliss interaction score
[1] | 0.12
[2] | -0.146
[3] | 0.0109
[4] | 0.0093

fitness, [5]
Settings | first compound 0.005 µg/mL | first compound 0.0065 µg/mL | first compound 0.01 µg/mL | first compound 0.013 µg/mL | first compound 0.02 µg/mL | first compound 0.026 µg/mL
partner 0.03 µg/mL | 0.897 | 0.799 | 0.896 | 0.889 | 0.917 | 0.89
partner 0.06 µg/mL | 0.772 | – | 0.799 | 0.7 | 0.77 | 0.688
partner 0.12 µg/mL | 0.578 | 0.439 | 0.583 | 0.479 | 0.583 | 0.504

C[C@@H](O)[C@H]1C(=O)N2C(C(=O)O)=C(SCCNC=N)C[C@H]12 [Imipenem] + CC1=C\[C@@H](O)CC(=O)Cc2nc(co2)C(=O)N2CCC=C2C(=O)O[C@H](C(C)C)[C@H](C)/C=C/C(=O)NC\C=C\1 [Virginiamycin M1]
Settings | Bliss interaction score
[1] | 0.0502
[2] | 0.0822
[3] | -0.0199
[4] | 0.0515

fitness, [5], one replicate
Settings | partner 0.15 µg/mL | partner 0.3 µg/mL | partner 0.5 µg/mL | partner 1 µg/mL
first compound 0.005 µg/mL | 0.993 | 0.88 | 0.978 | 0.979
first compound 0.01 µg/mL | ≥ 1 | 0.995 | 0.97 | ≥ 1
first compound 0.02 µg/mL | 0.988 | 0.901 | 0.978 | ≥ 1

fitness, [5]
Settings | first compound 0.005 µg/mL | first compound 0.0065 µg/mL | first compound 0.01 µg/mL | first compound 0.013 µg/mL | first compound 0.02 µg/mL | first compound 0.026 µg/mL
partner 0.5 µg/mL | – | 0.992 | – | 0.999 | – | 0.964
partner 1 µg/mL | – | 0.983 | – | ≥ 1 | – | 0.978
partner 2 µg/mL | 0.893 | 0.983 | 0.88 | – | 0.888 | 0.891

C[C@@H](O)[C@H]1C(=O)N2C(C(=O)O)=C(SCCNC=N)C[C@H]12 [Imipenem] + CC(=O)NC[C@H]1CN(c2ccc(N3CCOCC3)c(F)c2)C(=O)O1 [Linezolid]
Settings | Bliss interaction score
[1] | 0.128
[2] | -0.109
[3] | 0.0656
[4] | 0.0377

fitness, [5]
Settings | first compound 0.005 µg/mL | first compound 0.0065 µg/mL | first compound 0.01 µg/mL | first compound 0.013 µg/mL | first compound 0.02 µg/mL | first compound 0.026 µg/mL
partner 0.105 µg/mL | 0.845 | – | 0.837 | – | 0.833 | –
partner 0.2 µg/mL | – | 0.7 | – | 0.775 | – | 0.71
partner 0.21 µg/mL | 0.752 | – | 0.727 | – | 0.701 | –
partner 0.4 µg/mL | – | 0.506 | – | 0.592 | – | 0.494
partner 0.42 µg/mL | 0.6 | – | 0.47 | – | 0.578 | –
partner 0.8 µg/mL | – | 0.116 | – | 0.225 | – | 0.148
